Reference: patent EP3338775B1, “USE OF BUTYLIDENEPHTHALIDE” (Everfront Biotech Inc., priority 2015, dated 2017)
Several values for one entry are separate records, joined by “and”; a condition that tells them apart may be missing. Equal values may be shown once.

Key:
Assay type in all cases: cell-based
brain CSCs ^CD133+ = test: MTT cell viability assay on brain CSCs CD133+
Description: Thereafter, a cell viability assay, MTT assay, was utilized to analyze the viabilities of brain CSCs ^CD133+ and malignant glioma DBTRG cells. […]

[1] = test system: HNC-TIC-like oral stem cells (ALDH1^+CD44^+-1 cell line, ALDH1^+CD44^+-2 cell line); test: MTT viability assay on HNC-TIC-like oral stem cells; conditions: BP 0, 25, 50 and 100 µg/ml for 24 hours; both cell lines; Figure 2
Method: NHOKs (normal human oral keratinocytes) and HNC-TIC (head and neck cancer-derived tumor initiating cell)-like oral stem cells (i.e., ALDH1^+CD44^+-1 cell line or ALDH1^+CD44^+-2 cell line) were treated with different concentrations (0, 25, 50 and 100 µg/ml) of BP for 24 hours, and then, an MTT assay was utilized to analyzed the viabilities of NHOKs and HNC-TIC-like oral stem cells (i.e., ALDH1^+CD44^+-1 cell line and ALDH1^+CD44^+-2 cell line).

ALDH = test: ALDEFLUOR flow cytometry analysis of ALDH activity in HNC-TIC-like oral stem cells; conditions: group without DEAB addition; BP 0, 25 and 50 µg/ml for 24 hours; Figure 8
Method: ALDH protein is also an important stemness-maintenance marker of cancer stem cells and participates in the regulation of the self-renewal and differentiation of cancer stem cells. HNC-TIC-like oral stem cells (i.e., ALDH1^+CD44^+-1 cell line or ALDH1^+CD44^+-2 cell line) were treated with different concentrations (0, 25 and 50 µg/ml) of BP for 24 hours, and then, 1 ×10^5 cells obtained from each group were separately suspended in 50 µl of a stem cell detection kit (i.e., ALDEFLUOR array kit, purchased from […] Technologies Inc., Vancouver, Canada) buffer and the cell suspension of each group was separately added with ALDEFLUOR to a final concentration of 1 µM. Thereafter, a sample of each group was stained by […] and then analyzed by flow cytometry analysis to determine the ALDH activity of HNC-TIC-like oral stem cells (i.e., ALDH1^+CD44^+-1 cell line and ALDH1^+CD44^+-2 cell line).
The above experimental procedure was repeated, but the cell suspension of each group was further added with N,N-diethylaminobenzaldehyde (DEAB, i.e., an inhibitor of ALDH) to a final concentration of 150 µM of DEAB separately.

[2] = test system: Axl and Gas6 proteins, Axl gene; test: Western blotting and RT-PCR of Axl and Gas6 in brain CSCs CD133+; conditions: BP 0, 12.5, 25, 50, 62.5 and 75 µg/ml for 24 hours, Figures 9A, 9B
Method: It has been known that the expression of Axl (i.e., a receptor tyrosine kinase) is related to the ability of cancer stem cells in proliferation, anti-apoptosis, migration and invasion. Brain CSCs ^CD133+ was treated with different concentrations (0, 12.5, 25, 50, 62.5 and 75 µg/ml) of BP for 24 hours, and then, proteins and total RNA were extracted from the cells to conduct Western blotting and reverse transcriptase-polymerase chain reaction (RT-PCR) to determine the expressions of Axl and Gas6 (i.e., a ligand of Axl) proteins and the expression of Axl gene in the BP-treated brain CSCs ^CD133+.

[3] = test system: E-cadherin, TGFβ-1 and Slug; test: Western blotting of EMT-related proteins in brain CSCs CD133+; conditions: BP 0, 12.5, 25, 50, 62.5 and 75 µg/ml for 24 hours, Figure 12
Method: In has been known that at the start of the epithelial-mesenchymal transition (EMT) of cancer stem cells, the expression of E-cadherin would reduce and the aggregation force between cancer stem cells would decrease, so that the cancer stem cells would gain great invasion and migration capacity and depart from the primary tumor, and thus, could metastasize. Brain CSCs ^CD133+ was treated with different concentrations (0, 12.5, 25, 50, 62.5 and 75 µg/ml) of BP for 24 hours, and then, proteins were extracted from the cells to conduct Western blotting to determine the expressions of E-cadherin, TGFβ-1 (with an ability to induce EMT) and Slug (i.e., a member of Snail family transcriptional repressors with a property of promoting the metastasis of cancer cells) proteins in the BP-treated brain CSCs ^CD133+.

[4] = test system: pcDNA3.0-neo brain CSCs ^CD133+; test: Wound healing assay with pcDNA3.0-neo brain CSCs CD133+; conditions: without Axl overexpression; BP 0, 25, 50, 62.5, 75 and 100 µg/ml for 24 hours; Figure 14C
Method: (§1) In this research, to further investigate whether the capability of BP in inhibiting the metastasis of cancer stem cells is related to Axl, brain CSCs ^CD133+ was transfected with pcDNA3.0-Axl plasmid and pcDNA3.0-neo plasmid respectively by using Lipofectmine 2000 transfection reagent. Then, the transfected brain CSCs ^CD133+ and un-transfected brain CSCs ^CD133+ were selected by 200 to 600 µg/ml G418 at the same time to obtain brain CSCs ^CD133+ having pcDNA3.0-Axl plasmid (hereinafter referred to as "pcDNA 3.0-Axl brain CSCs ^CD133+") or brain CSCs ^CD133+ having pcDNA3.0-neo plasmid (hereinafter referred to as "pcDNA3.0-neo brain CSCs ^CD133+"). Both pcDNA 3.0-Axl brain CSCs ^CD133+ and pcDNA3.0-neo brain CSCs ^CD133+ were observed and photographed with the use of a microscope. Then, proteins were extracted from both cells to conduct Western blotting to determine the expressions of Axl protein and β-actin in the BP-treated brain CSCs ^CD133+. Yet another, pcDNA 3.0-Axl brain CSCs ^CD133+ and pcDNA3.0-neo brain CSCs ^CD133+ were treated with different concentrations (0, 25, 50, 62.5, 75 and 100 µg/ml) of BP for 24 hours. At the same time, the phenomenon of pcDNA 3.0-Axl brain CSCs ^CD133+ and pcDNA3.0-neo brain CSCs ^CD133+ migrate to the wound was observed and photographed at 0 and 24 hours during the BP treatment.

[5] = test system: pcDNA 3.0-Axl brain CSCs ^CD133+; test: Wound healing assay with pcDNA 3.0-Axl brain CSCs CD133+ (Axl overexpression); conditions: BP 0, 25, 50, 62.5, 75 and 100 µg/ml for 24 hours, compared to pcDNA3.0-neo cells, Figure 14C
Method: as §1

SMILES: CCCC=C1OC(=O)c2ccccc21 [BP, butylidenephthalide]
- viability of brain CSCs ^CD133+ (brain CSCs ^CD133+; 24-hour group and 48-hour group, BP 0-100 µg/ml, BCNU 0-1000 µM, Figure 1A, 1B): significantly decreased
- IC50 (brain CSCs ^CD133+; 24 h, read-out: IC50 to brain CSCs ^CD133+): 406 µM and 76.5 µg/mL
- viability of HNC-TIC-like oral stem cells [1]: decreased along with the increment in the concentration of BP
- number of live cells with ALDH activity (ALDH): increased along with the increment in the concentration of BP
- expressions of Axl and Gas6 proteins and the expression of Axl gene [2]: significantly decreased
- expression of E-cadherin protein [3]: significantly increased
- expressions of TGFβ-1 and Slug proteins [3]: significantly decreased
- number of pcDNA3.0-neo brain CSCs ^CD133+ migrated to the wound [4]: significantly decreased
- suppression of the number of pcDNA 3.0-Axl brain CSCs ^CD133+ migrated to the wound [5]: not quite significant
